Experimental data taken from PubChem BioAssay (NCI).
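Results reflect a 48-hour exposure of cells in 96-well plates to compound at five concentrations. TGI marks complete inhibition of growth.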

How the values were obtained:
Assay in all cases: NCI tumour cell line growth inhibition, 48 h
CAKI-1 renal = system: CAKI-1 renal
HOP-62 NSCLC = system: HOP-62 NSCLC
HCT-15 colon = system: HCT-15 colon
NCI/ADR-RES ovarian = system: NCI/ADR-RES ovarian
MDA-N = system: MDA-N
SK-MEL-5 melanoma = system: SK-MEL-5 melanoma
NCI-H23 lung = system: NCI-H23 lung
BT-549 breast = system: BT-549 breast
A498 renal = system: A498 renal
SK-MEL-2 melanoma = system: SK-MEL-2 melanoma
A549 NSCLC = system: A549 NSCLC
IGROV1 ovarian = system: IGROV1 ovarian
SN12C renal = system: SN12C renal
HL-60(TB) leukemia = system: HL-60(TB) leukemia
MDA-MB-435 = system: MDA-MB-435
PC-3 prostate = system: PC-3 prostate
ACHN renal = system: ACHN renal
M14 melanoma = system: M14 melanoma
COLO 205 colon = system: COLO 205 colon
K-562 leukemia = system: K-562 leukemia
SW-620 colon = system: SW-620 colon
NCI-H460 lung = system: NCI-H460 lung
RXF 393 renal = system: RXF 393 renal
NCI-H226 lung = system: NCI-H226 lung
SK-MEL-28 melanoma = system: SK-MEL-28 melanoma
MDA-MB-231 breast = system: MDA-MB-231 breast
HCC-2998 colon = system: HCC-2998 colon
MCF7 breast = system: MCF7 breast
HCT-116 colon = system: HCT-116 colon
SF-295 CNS = system: SF-295 CNS
HT29 colon = system: HT29 colon
OVCAR-8 ovarian = system: OVCAR-8 ovarian
SNB-19 CNS = system: SNB-19 CNS
CCRF-CEM leukemia = system: CCRF-CEM leukemia
HOP-92 NSCLC = system: HOP-92 NSCLC
SF-539 CNS = system: SF-539 CNS
DU-145 prostate = system: DU-145 prostate
SR leukemia = system: SR leukemia
UACC-257 melanoma = system: UACC-257 melanoma
LOX IMVI melanoma = system: LOX IMVI melanoma
KM12 colon = system: KM12 colon
SF-268 CNS = system: SF-268 CNS
MOLT-4 leukemia = system: MOLT-4 leukemia
NCI-H522 lung = system: NCI-H522 lung
T-47D breast = system: T-47D breast
RPMI-8226 leukemia = system: RPMI-8226 leukemia
OVCAR-4 ovarian = system: OVCAR-4 ovarian
U251 CNS = system: U251 CNS
786-0 renal = system: 786-0 renal
HS 578T breast = system: HS 578T breast
SNB-75 CNS = system: SNB-75 CNS
TK-10 renal = system: TK-10 renal
SK-OV-3 ovarian = system: SK-OV-3 ovarian
EKVX NSCLC = system: EKVX NSCLC
UO-31 renal = system: UO-31 renal
OVCAR-3 ovarian = system: OVCAR-3 ovarian
UACC-62 melanoma = system: UACC-62 melanoma
OVCAR-5 ovarian = system: OVCAR-5 ovarian
MALME-3M melanoma = system: MALME-3M melanoma

## O=CNc1ccc2c(c1)C(=O)c1ccccc1-2
CAKI-1 renal
  TGI: > 100 µM
HOP-62 NSCLC
  TGI: > 100 µM
HCT-15 colon
  TGI: > 100 µM
NCI/ADR-RES ovarian
  TGI: > 100 µM
MDA-N
  TGI: > 100 µM
SK-MEL-5 melanoma
  TGI: > 100 µM
NCI-H23 lung
  TGI: > 100 µM
BT-549 breast
  TGI: > 100 µM
A498 renal
  TGI: > 100 µM
SK-MEL-2 melanoma
  TGI: > 100 µM
A549 NSCLC
  TGI: > 100 µM
IGROV1 ovarian
  TGI: > 100 µM
SN12C renal
  TGI: > 100 µM
HL-60(TB) leukemia
  TGI: > 100 µM
MDA-MB-435
  TGI: > 100 µM
PC-3 prostate
  TGI: > 100 µM
ACHN renal
  TGI: > 100 µM
M14 melanoma
  TGI: > 100 µM
COLO 205 colon
  TGI: > 100 µM
K-562 leukemia
  TGI: > 100 µM
SW-620 colon
  TGI: > 100 µM
NCI-H460 lung
  TGI: > 100 µM
RXF 393 renal
  TGI: > 100 µM
NCI-H226 lung
  TGI: > 100 µM
SK-MEL-28 melanoma
  TGI: > 100 µM
MDA-MB-231 breast
  TGI: > 100 µM
HCC-2998 colon
  TGI: > 100 µM
MCF7 breast
  TGI: > 100 µM
HCT-116 colon
  TGI: > 100 µM
SF-295 CNS
  TGI: > 100 µM
HT29 colon
  TGI: > 100 µM
OVCAR-8 ovarian
  TGI: > 100 µM
SNB-19 CNS
  TGI: > 100 µM
CCRF-CEM leukemia
  TGI: > 100 µM
HOP-92 NSCLC
  TGI: > 100 µM
SF-539 CNS
  TGI: > 100 µM
DU-145 prostate
  TGI: > 100 µM
SR leukemia
  TGI: > 100 µM
UACC-257 melanoma
  TGI: > 100 µM
LOX IMVI melanoma
  TGI: > 100 µM
KM12 colon
  TGI: > 100 µM
SF-268 CNS
  TGI: > 100 µM
MOLT-4 leukemia
  TGI: > 100 µM
NCI-H522 lung
  TGI: > 100 µM
T-47D breast
  TGI: > 100 µM
RPMI-8226 leukemia
  TGI: > 100 µM
OVCAR-4 ovarian
  TGI: > 100 µM
U251 CNS
  TGI: > 100 µM
786-0 renal
  TGI: > 100 µM
HS 578T breast
  TGI: > 100 µM
SNB-75 CNS
  TGI: > 100 µM
TK-10 renal
  TGI: > 100 µM
SK-OV-3 ovarian
  TGI: > 100 µM
EKVX NSCLC
  TGI: 43.1 µM
UO-31 renal
  TGI: > 100 µM
OVCAR-3 ovarian
  TGI: > 100 µM
UACC-62 melanoma
  TGI: > 100 µM
OVCAR-5 ovarian
  TGI: > 100 µM

## Cc1ccc(NC(=O)c2ccc(OP(=O)(O)Nc3ccc(C)cc3)cc2)cc1
CAKI-1 renal
  TGI: > 100 µM
HOP-62 NSCLC
  TGI: > 100 µM
HCT-15 colon
  TGI: > 100 µM
NCI/ADR-RES ovarian
  TGI: > 100 µM
MDA-N
  TGI: > 100 µM
SK-MEL-5 melanoma
  TGI: > 100 µM
NCI-H23 lung
  TGI: > 100 µM
BT-549 breast
  TGI: > 100 µM
A498 renal
  TGI: > 100 µM
SK-MEL-2 melanoma
  TGI: > 100 µM
A549 NSCLC
  TGI: > 100 µM
IGROV1 ovarian
  TGI: > 100 µM
SN12C renal
  TGI: > 100 µM
HL-60(TB) leukemia
  TGI: > 100 µM
MDA-MB-435
  TGI: > 100 µM
PC-3 prostate
  TGI: > 100 µM
ACHN renal
  TGI: > 100 µM
M14 melanoma
  TGI: > 100 µM
COLO 205 colon
  TGI: > 100 µM
K-562 leukemia
  TGI: > 100 µM
SW-620 colon
  TGI: > 100 µM
NCI-H460 lung
  TGI: > 100 µM
RXF 393 renal
  TGI: > 100 µM
NCI-H226 lung
  TGI: > 100 µM
SK-MEL-28 melanoma
  TGI: > 100 µM
MDA-MB-231 breast
  TGI: > 100 µM
HCC-2998 colon
  TGI: > 100 µM
MCF7 breast
  TGI: > 100 µM
HCT-116 colon
  TGI: > 100 µM
SF-295 CNS
  TGI: > 100 µM
HT29 colon
  TGI: > 100 µM
OVCAR-8 ovarian
  TGI: > 100 µM
SNB-19 CNS
  TGI: > 100 µM
CCRF-CEM leukemia
  TGI: > 100 µM
HOP-92 NSCLC
  TGI: > 100 µM
MALME-3M melanoma
  TGI: > 100 µM
SF-539 CNS
  TGI: > 100 µM
DU-145 prostate
  TGI: > 100 µM
SR leukemia
  TGI: > 100 µM
UACC-257 melanoma
  TGI: > 100 µM
LOX IMVI melanoma
  TGI: > 100 µM
KM12 colon
  TGI: > 100 µM
SF-268 CNS
  TGI: > 100 µM
MOLT-4 leukemia
  TGI: > 100 µM
NCI-H522 lung
  TGI: > 100 µM
T-47D breast
  TGI: > 100 µM
RPMI-8226 leukemia
  TGI: > 100 µM
OVCAR-4 ovarian
  TGI: > 100 µM
U251 CNS
  TGI: > 100 µM
786-0 renal
  TGI: > 100 µM
HS 578T breast
  TGI: > 100 µM
SNB-75 CNS
  TGI: > 100 µM
TK-10 renal
  TGI: > 100 µM
SK-OV-3 ovarian
  TGI: > 100 µM
EKVX NSCLC
  TGI: > 100 µM
UO-31 renal
  TGI: > 100 µM
OVCAR-3 ovarian
  TGI: > 100 µM
UACC-62 melanoma
  TGI: > 100 µM
OVCAR-5 ovarian
  TGI: > 100 µM

## Oc1ccccc1CNCc1nc2ccccc2[nH]1
CAKI-1 renal
  TGI: > 100 µM
HOP-62 NSCLC
  TGI: > 100 µM
HCT-15 colon
  TGI: 12.3 µM
NCI/ADR-RES ovarian
  TGI: 61.5 µM
MDA-N
  TGI: > 100 µM
SK-MEL-5 melanoma
  TGI: 65.6 µM
NCI-H23 lung
  TGI: > 100 µM
BT-549 breast
  TGI: > 100 µM
A498 renal
  TGI: > 100 µM
SK-MEL-2 melanoma
  TGI: > 100 µM
A549 NSCLC
  TGI: > 100 µM
IGROV1 ovarian
  TGI: > 100 µM
SN12C renal
  TGI: > 100 µM
HL-60(TB) leukemia
  TGI: > 100 µM
MDA-MB-435
  TGI: > 100 µM
PC-3 prostate
  TGI: > 100 µM
ACHN renal
  TGI: 57.6 µM
M14 melanoma
  TGI: > 100 µM
COLO 205 colon
  TGI: 82.7 µM
K-562 leukemia
  TGI: > 100 µM
SW-620 colon
  TGI: > 100 µM
RXF 393 renal
  TGI: > 100 µM
NCI-H226 lung
  TGI: 87.4 µM
SK-MEL-28 melanoma
  TGI: > 100 µM
MDA-MB-231 breast
  TGI: > 100 µM
HCC-2998 colon
  TGI: > 100 µM
MCF7 breast
  TGI: > 100 µM
HCT-116 colon
  TGI: > 100 µM
SF-295 CNS
  TGI: > 100 µM
HT29 colon
  TGI: > 100 µM
OVCAR-8 ovarian
  TGI: > 100 µM
SNB-19 CNS
  TGI: > 100 µM
CCRF-CEM leukemia
  TGI: > 100 µM
HOP-92 NSCLC
  TGI: > 100 µM
SF-539 CNS
  TGI: > 100 µM
DU-145 prostate
  TGI: > 100 µM
SR leukemia
  TGI: > 100 µM
UACC-257 melanoma
  TGI: > 100 µM
LOX IMVI melanoma
  TGI: > 100 µM
KM12 colon
  TGI: > 100 µM
SF-268 CNS
  TGI: > 100 µM
MOLT-4 leukemia
  TGI: > 100 µM
NCI-H522 lung
  TGI: > 100 µM
T-47D breast
  TGI: > 100 µM
RPMI-8226 leukemia
  TGI: 73.1 µM
OVCAR-4 ovarian
  TGI: > 100 µM
U251 CNS
  TGI: > 100 µM
786-0 renal
  TGI: > 100 µM
HS 578T breast
  TGI: > 100 µM
SNB-75 CNS
  TGI: > 100 µM
TK-10 renal
  TGI: > 100 µM
EKVX NSCLC
  TGI: > 100 µM
UO-31 renal
  TGI: 49.1 µM
OVCAR-3 ovarian
  TGI: > 100 µM
UACC-62 melanoma
  TGI: > 100 µM
OVCAR-5 ovarian
  TGI: > 100 µM
